Results reported in ChEMBL document CHEMBL1150823, “Two bioactive saponins from Albizia subdimidiata from the Suriname rainforest” (J Nat Prod, 2001).
Values after ≈ are worked out from the molar mass of the structure shown.

Key:
Saccharomyces cerevisiae [1] = assay: DNA damaging activity against Saccharomyces cerevisiae Sc7 assessed as concentration required to produce 12 mm zone of inhibition; assay type: functional
Saccharomyces cerevisiae [2] = assay: DNA damaging activity against Saccharomyces cerevisiae 1138 assessed as concentration required to produce 12 mm zone of inhibition; assay type: functional
Saccharomyces cerevisiae [3] = assay: DNA damaging activity against Saccharomyces cerevisiae 1353 assessed as concentration required to produce 12 mm zone of inhibition; assay type: functional
Saccharomyces cerevisiae [4] = assay: DNA damaging activity against Saccharomyces cerevisiae 1140 assessed as concentration required to produce 12 mm zone of inhibition; assay type: functional
A2780 = assay: Cytotoxicity against human A2780 cells; assay type: functional, cell-based

Row | Structure (SMILES) | Activity (Saccharomyces cerevisiae [1]) [µg/mL] | Activity (Saccharomyces cerevisiae [2]) [µg/mL] | Activity (Saccharomyces cerevisiae [3]) [µg/mL] | Activity (Saccharomyces cerevisiae [4]) [µg/mL] | IC50 (A2780) [µg/mL]
1 | CC(=O)N[C@H]1[C@H](O[C@H]2CC[C@]3(C)[C@H]4CC=C5[C@@H]6CC(C)(C)CC[C@]6(C(=O)O)CC[C@@]5(C)[C@]4(C)CC[C@H]3C2(C)C)O[C@H](CO[C@@H]2OC[C@H](O)[C@H](O)[C@H]2O[C@@H]2OC[C@@H](O)[C@H](O)[C@H]2O)[C@@H](O)[C@@H]1O [ALBIZIATRIOSIDE A] | 30 | 30 | 35 | 35 | 0.9 (≈ 0.974 µM)
2 | CC(=O)N[C@H]1[C@H](O[C@H]2CC[C@]3(C)[C@H]4CC=C5[C@@H]6CC(C)(C)CC[C@]6(C(=O)O)CC[C@@]5(C)[C@]4(C)CC[C@H]3C2(C)C)O[C@H](CO[C@@H]2OC[C@H](O)[C@H](O)[C@H]2O[C@@H]2OC[C@H](O)[C@H](O)[C@H]2O)[C@@H](O)[C@@H]1O | 45 | 25 | 30 | 40 | 0.8 (≈ 0.866 µM)
